From patent US6518288B2, “Amlodipine fumarate” (Synthon BV, priority 2000, dated 2003)

Assay: Solubility of amlodipine hemifumarate in water and organic solvents (descriptive statement)
Format: physicochemical
Conditions: in water and most commonly used organic solvents

With Amlodipine Hemifumarate the solubility was “insoluble or only sparingly soluble”.
